Test results: patent publication US4510140A, “Therapeutically effective ω-(4-(2-pyridyl)-piperazino)-alkanoylanilides” (priority 1981, dated 1985)
Where two headings read alike, the source gives them in different places.

How the values were obtained:
[1] = system: passive cutaneous anaphylaxis; assay: PCA Test: passive cutaneous anaphylaxis induced in the rat with homologous antibodies (Goose and Blair); inhibition of spot areas; type: in vivo; settings: read-out: PCA Test - ED50 (inhibition of spot areas)
Method: In order to evaluate the antianaphylactic activity of the subject novel compounds, the method of Goose and Blair was followed, in which passive cutaneous anaphylaxis was induced in the rat with homologous antibodies [Immunology, 16, 749 (1969)]. Female albino rats were immunized intramuscularly with egg albumin and intraperitoneally with Hemophylus pertussis vaccine.
Twelve days after treatment, the animals were bled and the sera thus obtained were injected intradermally into another group of rats. Twenty-four hours later, the animals were challenged with an i.v. solution of ovoalbumin and Evans blue dye, and sacrificed after 30 minutes. The test drugs were administered by different routes of administration and at different times before the challenge. Inhibition of spot areas (ED50) was determined.

[2] = LD50 determined in the mouse (C. S. Weil method); set-up: unit not given here; settings: in vivo
From the text: Accordingly, the present invention also features pharmaceutical compositions comprising a pharmaceutically effective amount of a compound having the structural formula (I) as above-defined, or a pharmaceutically acceptable salt thereof, in admixture with conventional pharmaceutically acceptable dileunt or carrier. Suitable such carriers and unit dosage amounts will be apparent to those skilled in this art. Compare, for example, Remington's Pharmaceutical Sciences, 4th Edition (1970). The LD50 of the alkanoylanilides according to the invention was determined in the mouse, both in C. S. Weil, following the method describedBiometrics, 8, 249 (1952). The results obtained were as follows, with the designating for the active compounds corresponding to those set forth in the following specific examples: […]

[3] = system: bronchospasm induced by histamine; assay: Antibronchospastic activity (Konzett and Rossler): inhibition of bronchospasm induced in anaesthetized guinea-pig by histamine; type: in vivo; settings: Cavia porcellus, iv, 1 min, read-out: ED75 (inhibition of histamine-induced bronchospasm)
Method: The antibronchospastic activity was determined according to the method of Konzett and Rossler [Arch. exp. Path. Pharmakol., 195, 71 (1940)], determining the inhibition of bronchospasm induced in anaesthetized guinea-pig by histamine. For this purpose, the bronchospasms were induced by administering intravenously to the animals 0.5-2.5 μg/Kg of hystamine. Inhibition (ED75) was determined one minute after the injection of the drug under test, and the results obtained are reported in the following Table III: […]

[4] = anaesthetized guinea-pig, i.v., histamine 0.5-2.5 μg/Kg i.v., one minute after injection of the drug

SMILES	ED50 ([1]; Rattus norvegicus, ip) [µmol/kg]	LD50 ([2]; ip)	LD50 ([2]; po, os)	ED75 [3] [µmol/kg]	ED50 ([1]; Rattus norvegicus, po) [µmol/kg]	ED50 ([1]; po, rat, os) [µmol/kg]	ED50 ([1]; rat, ip) [µmol/kg]	ED75 [3, 4] [µmol/kg]
Cc1cccc(C)c1NC(=O)CN1CCN(c2ccccn2)CC1 [compound 1]	337	0.9						
Cc1cc(C)c(C)c(NC(=O)CN2CCN(c3ccccn3)CC2)c1C [compound 2]	212	0.65						
COc1ccc(NC(=O)CCN2CCN(c3ccccn3)CC2)cc1 [compound 3]	19	0.71	1.16	0.24				
O=C(CCN1CCN(c2ccccn2)CC1)Nc1cccc([N+](=O)[O-])c1 [compound 4]	56	0.42	2.07	0.37	68			
CC(=O)c1ccc(OCc2ccccc2)c(NC(=O)CCN2CCN(c3ccccn3)CC2)c1 [compound 5]	89	0.91	1.21	3.89				
O=C(CCN1CCN(c2ccccn2)CC1)Nc1ccc([N+](=O)[O-])cc1 [compound 6]	27	0.47	0.81	0.94				
Nc1ccc(NC(=O)CCN2CCN(c3ccccn3)CC2)cc1 [compound 7]	27	1.11	1.29	0.02	74			
O=C(CCN1CCN(c2ccccn2)CC1)Nc1ccc(NC(=O)Nc2ccccc2)cc1 [compound 8]		> 2.25	> 6.7					
CCC(=O)Nc1ccc(NC(=O)CCN2CCN(c3ccccn3)CC2)cc1 [compound 11]	160	1.05	1.53	0.23				
CCOC(=O)C(=O)Nc1ccc(NC(=O)CCN2CCN(c3ccccn3)CC2)cc1 [compound 12]		> 2.35	> 7.05			180	130	0.23
CC(=O)c1ccc(NC(=O)CCN2CCN(c3ccccn3)CC2)cc1 [compound 13]	104	0.48	1.5	0.02				
CC(O)c1ccc(NC(=O)CCN2CCN(c3ccccn3)CC2)cc1 (stereo not shown) [compound 14]	32	3.25	5.97	0.48	106			
Cc1cc(C)c(C)c(NC(=O)CCN2CCN(c3ccccn3)CC2)c1C [compound 15]	19	0.57		1.56	26			
O=C(CCN1CCN(c2ccccn2)CC1)Nc1ccccc1 [compound 16]	64	1.16	1.35	1.93	61			
Cc1ccccc1NC(=O)CCN1CCN(c2ccccn2)CC1 [compound 17]		1.01	1.58	0.47	67			
Cc1cccc(C)c1NC(=O)CCN1CCN(c2ccccn2)CC1 [compound 18]	81	0.8		1.57	13			
CCOc1ccc(NC(=O)CCN2CCN(c3ccccn3)CC2)cc1 [compound 19]		0.69	0.92	0.14	54			
O=C(CCN1CCN(c2ccccn2)CC1)Nc1ccc(O)cc1 [compound 20]		> 2.5	5.2			170	120	0.49
O=C(CCN1CCN(c2ccccn2)CC1)Nc1ccc(O)c([N+](=O)[O-])c1 [compound 21]	270	2.38	3.74	1.1	160			
Nc1ccccc1NC(=O)CCN1CCN(c2ccccn2)CC1 [compound 22]		3.2	2.08	1.63	100			

SMILES	ED50 ([1]; Rattus norvegicus, ip) [µmol/kg]	LD50 ([2]; ip)	LD50 ([2]; po, os)	ED75 [3] [µmol/kg]	ED50 ([1]; Rattus norvegicus, po) [µmol/kg]	ED50 ([1]; po, rat, os) [µmol/kg]	ED50 ([1]; rat, ip) [µmol/kg]	ED75 [3, 4] [µmol/kg]
Nc1cccc(NC(=O)CCN2CCN(c3ccccn3)CC2)c1 [compound 23]		0.9	0.85	0.61	170			
CC1CN(c2ccccn2)CCN1CCC(=O)Nc1ccc(N)cc1 (stereo not shown) [compound 24]		1.18	2.97	0.59	39			
COc1cccc(N2CCN(CCC(=O)Nc3ccc(N)cc3)CC2)n1 [compound 25]	110	0.53	1.6	0.4	55			
CC(=O)Nc1ccc(NC(=O)CCN2CCN(c3ccccn3)CC2)cc1 [compound 27]			> 6.81			92	120	0.97
CNC(=O)Nc1ccc(NC(=O)CCN2CCN(c3ccccn3)CC2)cc1 [compound 28]		> 2.15	> 6.5			73		0.29
O=C(CCN1CCN(c2ccccn2)CC1)Nc1ccccc1[N+](=O)[O-] [compound 29]		2.08	3.7	0.58				
CC1CN(c2ccccn2)CCN1CCC(=O)Nc1ccc([N+](=O)[O-])cc1 (stereo not shown) [compound 30]		0.42	1.2	1.75	230			
COc1cccc(N2CCN(CCC(=O)Nc3ccc([N+](=O)[O-])cc3)CC2)n1 [compound 31]			4.39		130			
O=C(CCN1CCN(c2ccccn2)CC1)Nc1cc([N+](=O)[O-])cc([N+](=O)[O-])c1 [compound 32]			1.57	2.4				
O=C(CCN1CCN(c2ccccn2)CC1)Nc1ccccc1Cl [compound 33]	151	1.29	2.64	1.12	47			
COc1cccc(N2CCN(CCC(=O)Nc3ccccc3[N+](=O)[O-])CC2)n1 [compound 34]			> 7.1					
O=C(CCN1CCN(c2ccccn2)CC1)Nc1ccc(Cl)cc1 [compound 35]		0.62	0.96	2.27	39			
O=C(CCN1CCN(c2ccccn2)CC1)Nc1c(Cl)cccc1Cl [compound 36]		0.8	1.24	0.4	29			
O=C(CCN1CCN(c2ccccn2)CC1)Nc1cccc(C(F)(F)F)c1 [compound 37]		0.56	1.17					
COc1cccc(N2CCN(CCC(=O)Nc3ccccc3N)CC2)n1 [compound 38]		0.37	0.67		44			
CC(=O)c1ccccc1NC(=O)CCN1CCN(c2ccccn2)CC1 [compound 39]		2.3	> 6.91	0.89	73			
CC(=O)c1cccc(NC(=O)CCN2CCN(c3ccccn3)CC2)c1 [compound 40]		0.68	1.11	0.2	73			
CCOC(=O)c1ccc(NC(=O)CCN2CCN(c3ccccn3)CC2)cc1 [compound 41]	220	0.66	0.92	0.17	28			
CSc1ccc(NC(=O)CCN2CCN(c3ccccn3)CC2)cc1 [compound 42]			> 8.4					
N#Cc1ccc(NC(=O)CCN2CCN(c3ccccn3)CC2)cc1 [compound 43]		0.39	0.62					
